Source: the supplement of paper PMC10307832

Compound: CCn1c(-c2nonc2N)nc2c(C#CC(C)(C)O)ncc(OC[C@H]3CCCNC3)c21 + CC(=O)Nc1cccc(-n2c(=O)n(C3CC3)c(=O)c3c(Nc4ccc(I)cc4F)n(C)c(=O)c(C)c32)c1 [Trametinib] (partner 0.02 µM)
Assay: relative viability (nuclei count vs DMSO), 5 days (fraction); higher = more cells survive
Conditions: first compound 0.01 µM
How it was run: (§1)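 Lung cancer cell lines, seeded in 1536-well plates, were treated the following day by pin tool with a single drug or with five library-drug doses (not always all listed) in √10 steps on top of a fixed anchor-drug dose. Cells were fixed and nuclei stained in one step after 5 days, and nuclei were counted. Relative viability is the nuclei count for treated wells divided by that for vehicle wells, reported as medians of duplicate plates.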

Point of comparison: NCI-H3122, relative viability 0.242. Against it:
- NCI-H2228 — higher, 0.553
- NCI-H1792 — higher, 0.472
- NCI-H1355 — higher, 0.464
- NCI-H1437 — higher, 0.483
- NCI-H1755 — higher, 0.855
- NCI-H2023 — higher, 0.639
- HCC-15 — higher, 0.358

Same assay, conditions: first compound 0.03162 µM

Point of comparison: NCI-H1651, relative viability 0.82. Against it:
- NCI-H322M — lower, 0.508
- LCLC-97TM1 — lower, 0.232
- NCI-H2009 — lower, 0.274
- A-427 — lower, 0.81
- NCI-H441 — lower, 0.39
- NCI-H661 — lower, 0.615
- NCI-H1734 — lower, 0.664
- NCI-H460 — lower, 0.121
- NCI-H2347 — lower, 0.314
- SK-LU-1 — lower, 0.495
- NCI-H1395 — higher, 0.864
- 201T — lower, 0.705
- NCI-H1915 — lower, 0.3
- HCC-827 — lower, 0.5
- LXF-289 — lower, 0.66
- NCI-H23 — lower, 0.378
- NCI-H647 — lower, 0.493
- CAL-12T — lower, 0.388
- EPLC-272H — lower, 0.284
- NCI-H2228 — lower, 0.449
- NCI-H1792 — lower, 0.424
- NCI-H1355 — lower, 0.415
- NCI-H3122 — lower, 0.224
- NCI-H1437 — lower, 0.508
- NCI-H1755 — lower, 0.808
- NCI-H2023 — lower, 0.55
- HCC-15 — lower, 0.352

Same assay, conditions: first compound 0.1 µM

Point of comparison: NCI-H1355, relative viability 0.463. Against it:
- NCI-H322M — higher, 0.505
- LCLC-97TM1 — lower, 0.216
- NCI-H2009 — lower, 0.245
- A-427 — higher, 0.742
- NCI-H441 — lower, 0.452
- NCI-H661 — higher, 0.521
- NCI-H1734 — higher, 0.678
- NCI-H460 — lower, 0.145
- NCI-H2347 — lower, 0.242
- SK-LU-1 — lower, 0.458
- NCI-H1395 — higher, 0.935
- 201T — higher, 0.763
- NCI-H1915 — lower, 0.299
- HCC-827 — higher, 0.546
- LXF-289 — higher, 0.703
- NCI-H23 — lower, 0.433
- NCI-H647 — higher, 0.475
- CAL-12T — lower, 0.322
- NCI-H1651 — higher, 0.811
- EPLC-272H — lower, 0.252
- NCI-H2228 — higher, 0.468
- NCI-H1792 — higher, 0.504
- NCI-H3122 — lower, 0.236
- NCI-H1437 — higher, 0.612
- NCI-H1755 — higher, 0.801
- NCI-H2023 — lower, 0.422
- HCC-15 — lower, 0.385

Same assay, conditions: first compound 0.3162 µM

Point of comparison: NCI-H1355, relative viability 0.386. Against it:
- NCI-H322M — higher, 0.433
- LCLC-97TM1 — lower, 0.191
- NCI-H2009 — lower, 0.301
- A-427 — higher, 0.691
- NCI-H441 — higher, 0.397
- NCI-H661 — higher, 0.491
- NCI-H1734 — higher, 0.584
- NCI-H460 — lower, 0.0808
- NCI-H2347 — lower, 0.263
- SK-LU-1 — higher, 0.443
- NCI-H1395 — higher, 0.705
- 201T — higher, 0.722
- NCI-H1915 — lower, 0.281
- HCC-827 — higher, 0.504
- LXF-289 — higher, 0.609
- NCI-H23 — lower, 0.369
- NCI-H647 — lower, 0.364
- CAL-12T — lower, 0.317
- NCI-H1651 — higher, 0.783
- EPLC-272H — lower, 0.217
- NCI-H2228 — lower, 0.325
- NCI-H1792 — lower, 0.344
- NCI-H3122 — lower, 0.192
- NCI-H1437 — higher, 0.515
- NCI-H1755 — higher, 0.769
- NCI-H2023 — higher, 0.432
- HCC-15 — higher, 0.39

Same assay, conditions: first compound 1 µM

Point of comparison: NCI-H460, relative viability 0.105. Against it:
- NCI-H322M — higher, 0.511
- LCLC-97TM1 — higher, 0.198
- NCI-H2009 — higher, 0.259
- A-427 — higher, 0.775
- NCI-H441 — higher, 0.378
- NCI-H661 — higher, 0.569
- NCI-H1734 — higher, 0.679
- NCI-H2347 — higher, 0.332
- SK-LU-1 — higher, 0.441
- NCI-H1395 — higher, 0.818
- 201T — higher, 0.749
- NCI-H1915 — higher, 0.308
- HCC-827 — higher, 0.462
- LXF-289 — higher, 0.668
- NCI-H23 — higher, 0.357
- NCI-H647 — higher, 0.323
- CAL-12T — higher, 0.297
- NCI-H1651 — higher, 0.841
- EPLC-272H — higher, 0.315
- NCI-H2228 — higher, 0.197
- NCI-H1792 — higher, 0.387
- NCI-H1355 — higher, 0.382
- NCI-H3122 — higher, 0.242
- NCI-H1437 — higher, 0.535
- NCI-H1755 — higher, 0.801
- NCI-H2023 — higher, 0.288
- HCC-15 — higher, 0.354

Compound: CCn1c(-c2nonc2N)nc2c(C#CC(C)(C)O)ncc(OC[C@H]3CCCNC3)c21 + CCNC(=O)c1noc(-c2cc(C(C)C)c(O)cc2O)c1-c1ccc(CN2CCOCC2)cc1 [Luminespib] (partner 0.01 µM)
Assay: as above
Conditions: first compound 0.01 µM
How it was run: as §1

Point of comparison: NCI-H2009, relative viability 1.07. Against it:
- NCI-H322M — lower, 0.784
- LCLC-97TM1 — lower, 0.707
- A-427 — lower, 0.944
- NCI-H441 — lower, 0.434
- NCI-H661 — lower, 0.89
- NCI-H1734 — lower, 0.189
- NCI-H460 — lower, 0.0307
- NCI-H2347 — lower, 0.396
- SK-LU-1 — lower, 0.22
- NCI-H1395 — lower, 0.78
- 201T — lower, 1.04
